The values below come from patent US12285450B2, “Lactiplantibacillus plantarum effectively inhibiting multi-drug-resistant Klebsiella pneumoniae and use thereof” (priority 2023, dated 2025).

Where two headings read alike, the source gives them in different places.

The assay relates to Klebsiella pneumoniae ZFM4. Put plainly: Antibiotic resistance of ZFM4 by disk diffusion method. The format is cell-based. To be noted: for antibiotic resistance of ZFM4 (in words): disk diffusion method. How it is done: The antibiotic susceptibility test disk was purchased from Hangzhou Microbial Reagent Co., Ltd., including amoxicillin, cefuroxime, gentamycin, erythromycin, vancomycin, tetracycline, penicillin, ciprofloxacin, streptomycin, and chloramphenicol.
The antibiotic resistance of Klebsiella pneumoniae ZFM4 was evaluated by disk diffusion method. 100 μL of the second-generation bacterial culture of Klebsiella pneumoniae ZFM4 was coated on LB solid medium and the antibiotic susceptibility test disk was placed on the plate. After aerobically incubation at 37° C. for 48 hrs, the diameter of the inhibition zone was measured. […] That is, Klebsiella pneumoniae ZFM4 had multiple drug resistance.
For orientation: Agar diffusion results depend on both activity and mobility in agar.

In the case of `CC1(C)S[C@@H]2[C@H](NC(=O)[C@H](N)c3ccc(O)cc3)C(=O)N2[C@H]1C(=O)O` [Amoxicillin], the “antibiotic resistance of ZFM4 (in words)” value is on record as “resistant”. Besides, the zone of inhibition at 25 µg/disc (Klebsiella pneumoniae, ZFM4, Amoxicillin disk 25 μg/tablet, 37° C., 48 hrs, read-out: Drug resistance evaluation result) was less than 13 mm.
Turning to `CO/N=C(\C(=O)N[C@@H]1C(=O)N2C(C(=O)O)=C(COC(N)=O)CS[C@H]12)c1ccco1` [Cefuroxime], the “antibiotic resistance of ZFM4 (in words)” value is listed as “resistant”. Also, the zone of inhibition at 30 µg/disc (Klebsiella pneumoniae, ZFM4, Cefuroxime disk 30 μg/tablet, 37° C., 48 hrs, read-out: Drug resistance evaluation result) was less than 10 mm.
In the case of `O=C(N[C@H](CO)[C@H](O)c1ccc([N+](=O)[O-])cc1)C(Cl)Cl` [Chloramphenicol], the “antibiotic resistance of ZFM4 (in words)” value is “resistant”. The zone of inhibition at 30 µg/disc (Klebsiella pneumoniae, ZFM4, Chloramphenicol disk 30 μg/tablet, 37° C., 48 hrs, read-out: Drug resistance evaluation result) is less than 12 mm.
In the case of `O=C(O)c1cn(C2CC2)c2cc(N3CCNCC3)c(F)cc2c1=O` [Ciprofloxacin], the “antibiotic resistance of ZFM4 (in words)” value is “moderately resistant”. Also, where the note is “Klebsiella pneumoniae, ZFM4, Ciprofloxacin disk 5 μg/tablet, 37° C., 48 hrs, read-out: Drug resistance evaluation result”, the zone of inhibition at 5 µg/disc fell in the range of 15 to 21 mm.
Turning to `CC[C@H]1OC(=O)[C@H](C)[C@@H](O[C@H]2C[C@@](C)(OC)[C@@H](O)[C@H](C)O2)[C@H](C)[C@@H](O[C@@H]2O[C@H](C)C[C@H](N(C)C)[C@H]2O)[C@](C)(O)C[C@@H](C)C(=O)[C@H](C)[C@@H](O)[C@]1(C)O` [Erythromycin], the “antibiotic resistance of ZFM4 (in words)” value was “resistant”. In addition, the zone of inhibition at 15 µg/disc (Klebsiella pneumoniae, ZFM4, Erythromycin disk 15 μg/tablet, 37° C., 48 hrs, read-out: Drug resistance evaluation result) was less than 13 mm.
For the molecule `[H]/N=C(/N)N[C@H]1[C@H](O)[C@@H](O)[C@H](O[C@@H]2O[C@@H](C)[C@](O)(C=O)[C@H]2O[C@@H]2O[C@@H](CO)[C@H](O)[C@@H](O)[C@@H]2NC)[C@@H](N/C(N)=N\[H])[C@@H]1O` [Streptomycin], the “antibiotic resistance of ZFM4 (in words)” value is “moderately resistant”. Further, the zone of inhibition at 10 µg/disc (Klebsiella pneumoniae, ZFM4, Streptomycin disk 10 μg/tablet, 37° C., 48 hrs, read-out: Drug resistance evaluation result) lay within 11 to 15 mm.
Turning to `CN(C)[C@@H]1C(O)=C(C(N)=O)C(=O)[C@@]2(O)C(O)=C3C(=O)c4c(O)cccc4[C@@](C)(O)[C@H]3C[C@@H]12` [Tetracycline], the zone of inhibition at 30 µg/disc (Klebsiella pneumoniae, ZFM4, Tetracycline disk 30 μg/tablet, 37° C., 48 hrs, read-out: Drug resistance evaluation result) was more than 15 mm.
With `CN[C@H](CC(C)C)C(=O)N[C@H]1C(=O)N[C@@H](CC(N)=O)C(=O)N[C@H]2C(=O)N[C@H]3C(=O)N[C@H](C(=O)N[C@H](C(=O)O)c4cc(O)cc(O)c4-c4cc3ccc4O)[C@H](O)c3ccc(c(Cl)c3)Oc3cc2cc(c3O[C@@H]2O[C@H](CO)[C@@H](O)[C@H](O)[C@H]2O[C@H]2C[C@](C)(N)[C@H](O)[C@H](C)O2)Oc2ccc(cc2Cl)[C@H]1O` [Vancomycin], the “antibiotic resistance of ZFM4 (in words)” value was “resistant”. In addition, for the setting “Klebsiella pneumoniae, ZFM4, 48 h, read-out: Drug resistance evaluation result”, the zone of inhibition at 30 µg/disc is less than 14 mm.
With Gentamicin, the “antibiotic resistance of ZFM4 (in words)” value is reported as “resistant”. In addition, the “Drug resistance evaluation result” value (Gentamicin disk 10 μg/tablet, 37° C., 48 hrs) was “R (≤12)”.
Turning to Penicillin, the “antibiotic resistance of ZFM4 (in words)” value is “resistant”. For the same molecule, the “Drug resistance evaluation result” value (Penicillin disk 10 μg/tablet, 37° C., 48 hrs) was “R (≤14)”.
